From patent US12398111B2, “Triazine compounds and pharmaceutical use thereof” (Japan Tobacco Inc., priority 2014, dated 2025)
pIC50: −log10 of the molar value.

Each molecule was assayed against T1, human mPGES-1 (Homo sapiens, UniProt O14684) (assay: Evaluation of human mPGES-1 enzyme inhibitory activity (PGE2 measured by HTRF, microsome fraction of CHO-S cells expressing human mPGES-1)). Conditions: IC50 value; microsome fraction of CHO-S cells expressing human mPGES-1, PGE2 by HTRF.
T1 construct: made in house; host or cells: FreeStyle CHO-S cells (Chinese hamster ovary), transient transfection with pcDNA3.1(+)/human mPGES-1; microsome fraction used
T1 sequence (O14684 1-152): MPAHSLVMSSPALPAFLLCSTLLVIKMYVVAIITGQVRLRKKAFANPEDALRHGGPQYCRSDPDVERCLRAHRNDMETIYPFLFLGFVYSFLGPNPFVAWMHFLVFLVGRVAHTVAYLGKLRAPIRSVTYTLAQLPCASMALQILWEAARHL
Type: biochemical
Method in brief: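 Enzyme source: microsomes from CHO-S cells transfected with human mPGES-1 and cultured 48 hr, diluted to 5 μg/mL protein in reduced GSH (12.5 mmol/L KPB solution). Test articles were in 0.1 mol/L potassium phosphate pH 7.4, final DMSO 2% (v/v). PGE2 formed was quantified by HTRF.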
In the case of `O=C(NCc1ccc(Cl)c(-c2nc(O)nc(-c3ccc(F)c(C4CC4)c3)n2)c1)C1(C(F)(F)F)CC1` [Example 1-157], the pIC50 was 9.15. Work on `CCCOc1ccc(-c2nc(O)nc(-c3cc(CN4CC(C)(C)C4=O)ccc3Cl)n2)cc1` [Example 1-158] yielded a pIC50 of 7.92. With `CC(C)(C(=O)NCc1ccc(Cl)c(-c2nc(O)nc(-c3cccc(C4CC4)c3)n2)c1)C(F)(F)F` [Example 1-159] the pIC50 was 9.15. For `O=C(NCc1ccc(Cl)c(-c2nc(O)nc(-c3cccc(C4CC4)c3)n2)c1)C1(C(F)(F)F)CC1` [Example 1-160], the pIC50 was 8.85. In the case of `CCOc1ccc(-c2nc(O)nc(-c3cc(CNC(=O)C(C)(C)C(F)(F)F)ccc3Cl)n2)c(C)c1` [Example 1-161], the pIC50 was 8.89. For `CO[C@](C)(C(=O)NCc1ccc(Cl)c(-c2nc(O)nc(-c3ccc(OCC4CC4)cc3)n2)c1)C(F)(F)F` [Example 1-162], the pIC50 was 8.92. `O=C(NCc1ccc(Cl)c(-c2nc(O)nc(-c3ccc(OCC4CC4)cc3)n2)c1)C1(C(F)(F)F)CC1` [Example 1-163] gave a pIC50 of 9.00. `CC(C)(C(=O)NCc1ccc(Cl)c(-c2nc(O)nc(-c3ccc(OCC4(C(F)(F)F)CC4)cc3)n2)c1)C(F)(F)F` [Example 1-164] was tested, and the pIC50 was 8.43. Work on `CO[C@](C)(C(=O)NCc1ccc(Cl)c(-c2nc(O)nc(-c3ccc(F)c(C4CC4)c3)n2)c1)C(F)(F)F` [Example 1-165] yielded a pIC50 of 9.05. Molecule `CC(C)(CC(F)(F)F)C(=O)NCc1ccc(Cl)c(-c2nc(O)nc(-c3ccc(OCC4CC4)cc3)n2)c1` [Example 1-166] has a pIC50 of 8.96. Molecule `CC(C)(C(=O)NCc1ccc(Cl)c(-c2nc(O)nc(-c3ccc(OCCC4CC4)cc3)n2)c1)C(F)(F)F` [Example 1-167] has a pIC50 of 8.72. `CC1(C)CC(C(=O)NCc2ccc(Cl)c(-c3nc(O)nc(-c4ccc(OCC5CC5)cc4)n3)c2)C1` [Example 1-168] gave a pIC50 of 8.68. `O=C(NCc1ccc(Cl)c(-c2nc(O)nc(-c3ccc(OCC4CC4)cc3)n2)c1)C1CCC(F)(F)CC1` [Example 1-170] showed a pIC50 of 8.82. Work on `CCC(CC)C(=O)NCc1ccc(Cl)c(-c2nc(O)nc(-c3ccc(OCC4CC4)cc3)n2)c1` [Example 1-171] yielded a pIC50 of 9.30. Molecule `CC(C)(C(=O)NCc1ccc(Cl)c(-c2nc(O)nc(-c3ccc(OCC4CCCCC4)cc3)n2)c1)C(F)(F)F` [Example 1-172] has a pIC50 of 7.77. `CC1(C)C(C(=O)NCc2ccc(Cl)c(-c3nc(O)nc(-c4ccc(OCC5CC5)cc4)n3)c2)C1(C)C` [Example 1-173] gave a pIC50 of 8.27. In the case of `Cc1ccc(C#N)c(-c2nc(O)nc(-c3ccc(C#Cc4ccccc4)cc3)n2)c1` [Example 1-174], the pIC50 was 8.51. `Cc1cc(-c2nc(O)nc(-c3cc(CNC(=O)C(C)(C)C(F)(F)F)ccc3Cl)n2)ccc1OCC1CC1` [Example 1-175] gave a pIC50 of 8.89. In the case of `Cc1cc(-c2nc(O)nc(-c3cc(CNC(=O)C(C)(C)C(F)(F)F)ccc3Cl)n2)cc(C)c1OCC1CC1` [Example 1-176], the pIC50 was 8.74. Molecule `CO[C@](C)(C(=O)NCc1ccc(Cl)c(-c2nc(O)nc(-c3ccc(CC(C)C)cc3)n2)c1)C(F)(F)F` [Example 1-177] has a pIC50 of 8.89. In the case of `CC1(C)CCC(Oc2ccc(-c3nc(O)nc(-c4cc(CNC(=O)C(C)(C)C(F)(F)F)ccc4Cl)n3)cc2)CC1` [Example 1-179], the pIC50 was 7.80. In the case of `CCCCc1ccc(-c2nc(O)nc(-c3cc(CNC(=O)C(C)(C)C(F)(F)F)ccc3Cl)n2)cc1` [Example 1-180], the pIC50 was 8.39. In the case of `CCCCc1ccc(-c2nc(O)nc(-c3cc(CNC(=O)[C@@](C)(OC)C(F)(F)F)ccc3Cl)n2)cc1` [Example 1-181], the pIC50 was 8.62. `CC(C)COc1ccc(-c2nc(O)nc(-c3cc(CNC(=O)C(C)(C)C(F)(F)F)ccc3Cl)n2)cn1` [Example 1-182] showed a pIC50 of 8.80. `Cc1cc(-c2nc(O)nc(-c3cc(CNC(=O)C(C)(C)CC(F)(F)F)ccc3Cl)n2)ccc1F` [Example 1-183] showed a pIC50 of 8.89. Work on `Cc1cc(-c2nc(O)nc(-c3cc(CNC(=O)C(C)(C)C(F)(F)F)ccc3Cl)n2)ccc1F` [Example 1-186] yielded a pIC50 of 8.85. `CC(C)(C)COc1ccc(-c2nc(O)nc(-c3cc(CO)ccc3Cl)n2)cc1` [Example 1-187] was tested, and the pIC50 was 8.28. In the case of `CN(C)C(=O)OCc1ccc(Cl)c(-c2nc(O)nc(-c3ccc(OCC4CC4)cc3)n2)c1` [Example 1-190], the pIC50 was 7.33. For `CC(C)(C(=O)NCc1ccc(Cl)c(-c2nc(O)nc(-c3ccc(C#CC4CCCCC4)cc3)n2)c1)C(F)(F)F` [Example 1-191], the pIC50 was 7.82. `NC(=O)c1ccc(Cl)c(-c2nc(O)nc(-c3ccc(OCC4CC4)cc3)n2)c1` [Example 1-193] was tested, and the pIC50 was 5.06. For `CNC(=O)c1ccc(Cl)c(-c2nc(O)nc(-c3ccc(OCC4CC4)cc3)n2)c1` [Example 1-194], the pIC50 was 4.98. Work on `CN(C)C(=O)c1ccc(Cl)c(-c2nc(O)nc(-c3ccc(OCC4CC4)cc3)n2)c1` [Example 1-195] yielded a pIC50 of 5.22. With `CN(Cc1ccc(Cl)c(-c2nc(O)nc(-c3ccc(OCC(C)(C)C)cc3)n2)c1)C(=O)C(C)(C)C(F)(F)F` [Example 1-196] the pIC50 was 7.38. In the case of `COCc1ccc(Cl)c(-c2nc(O)nc(-c3ccc(OCC(C)(C)C)cc3)n2)c1` [Example 1-197], the pIC50 was 6.54. `CC(C)(C)COc1ccc(-c2nc(O)nc(-c3cc(CCO)ccc3Cl)n2)cc1` [Example 1-198] gave a pIC50 of 7.85. `COCCc1ccc(Cl)c(-c2nc(O)nc(-c3ccc(OCC(C)(C)C)cc3)n2)c1` [Example 1-199] was tested, and the pIC50 was 7.51. With `CC(C)(C(=O)NCc1ccc(Cl)c(-c2nc(O)nc(-c3ccccc3)n2)c1)c1ccccc1` [Example 1-202] the pIC50 was 8.09. With `CC(C)(C)COc1ccc(-c2nc(O)nc(-c3cc(CCNC(=O)C(C)(C)C(F)(F)F)ccc3Cl)n2)cc1` [Example 1-203] the pIC50 was 7.70. Molecule `CC(C)COCc1ccc(Cl)c(-c2nc(O)nc(-c3ccc(OCC(C)(C)C)cc3)n2)c1` [Example 1-204] has a pIC50 of 7.47. For `CCCCc1ccc(Cl)c(-c2nc(O)nc(-c3ccc(OCC(C)(C)C)cc3)n2)c1` [Example 1-205], the pIC50 was 6.44. `CC(C)Cc1ccc(-c2nc(O)nc(-c3cc(CN(C)C(=O)C(C)(C)C(F)(F)F)ccc3Cl)n2)cc1` [Example 1-206] showed a pIC50 of 7.85. Work on `CC(C)(C)COc1ccc(-c2nc(O)nc(-c3cc(CO)ccc3C(F)(F)F)n2)cc1` [Example 1-207] yielded a pIC50 of 8.37. For `CC(C)(C)COc1ccc(-c2nc(O)nc(-c3cc(CNC(=O)C(C)(C)C(F)(F)F)ccc3C(F)(F)F)n2)cc1` [Example 1-208], the pIC50 was 7.80. For `CCN(Cc1ccc(Cl)c(-c2nc(O)nc(-c3ccc(OCC(C)(C)C)cc3)n2)c1)C(=O)OC(C)(C)C` [Example 1-209], the pIC50 was 7.23. For `CCNCc1ccc(Cl)c(-c2nc(O)nc(-c3ccc(OCC(C)(C)C)cc3)n2)c1` [Example 1-210], the pIC50 was 6.54. Molecule `CN(Cc1ccc(Cl)c(-c2nc(O)nc(-c3ccc(OCC4CCCCC4)cc3)n2)c1)C(=O)C(C)(C)C(F)(F)F` [Example 1-211] has a pIC50 of 7.20. With `CC(C)(C)COc1ccc(-c2nc(O)nc(-c3cc(CNCC(F)(F)F)ccc3Cl)n2)cc1` [Example 1-212] the pIC50 was 7.49. With `CN(Cc1ccc(Cl)c(-c2nc(O)nc(-c3ccc(C#CC4CCCCC4)cc3)n2)c1)C(=O)C(C)(C)C(F)(F)F` [Example 1-213] the pIC50 was 7.06. In the case of `CC(C)(C)COc1ccc(-c2nc(O)nc(-c3cc(CC(C)(C)O)ccc3Cl)n2)cc1` [Example 1-214], the pIC50 was 7.62. Molecule `COC(C)(C)Cc1ccc(Cl)c(-c2nc(O)nc(-c3ccc(OCC(C)(C)C)cc3)n2)c1` [Example 1-215] has a pIC50 of 6.34. Work on `CC(O)Cc1ccc(Cl)c(-c2nc(O)nc(-c3ccc(OCC(C)(C)C)cc3)n2)c1` (centres unmarked) [Example 1-216] yielded a pIC50 of 7.41. Work on `CC(C)(C)COc1ccc(-c2nc(O)nc(-c3cc(CCC(=O)NC(C)(C)C)ccc3Cl)n2)cc1` [Example 1-217] yielded a pIC50 of 6.90. Work on `CN(C)C(=O)CCc1ccc(Cl)c(-c2nc(O)nc(-c3ccc(OCC(C)(C)C)cc3)n2)c1` [Example 1-218] yielded a pIC50 of 7.15. Work on `CC(C)COCc1ccc(Cl)c(-c2nc(O)nc(-c3ccc(C#CC4CCCCC4)cc3)n2)c1` [Example 1-219] yielded a pIC50 of 7.39. With `CN(Cc1ccc(Cl)c(-c2nc(O)nc(-c3ccccc3)n2)c1)C(=O)C(C)(C)C(F)(F)F` [Example 1-220] the pIC50 was 7.80. `CN(Cc1ccc(Cl)c(-c2nc(O)nc(-c3ccccc3)n2)c1)C(=O)C(C)(C)C` [Example 1-221] was tested, and the pIC50 was 7.10. `CC(C)C(=O)N(C)Cc1ccc(Cl)c(-c2nc(O)nc(-c3ccccc3)n2)c1` [Example 1-222] gave a pIC50 of 6.78. `CN(Cc1ccc(Cl)c(-c2nc(O)nc(-c3ccc(OCC(C)(C)C)cc3)n2)c1)S(=O)(=O)C(C)(C)C` [Example 1-223] showed a pIC50 of 8.15. `CCC(=O)N(C)Cc1ccc(Cl)c(-c2nc(O)nc(-c3ccccc3)n2)c1` [Example 1-224] was tested, and the pIC50 was 5.24. With `CCCC(=O)N(C)Cc1ccc(Cl)c(-c2nc(O)nc(-c3ccccc3)n2)c1` [Example 1-225] the pIC50 was 5.38. `CC(C)CC(=O)N(C)Cc1ccc(Cl)c(-c2nc(O)nc(-c3ccccc3)n2)c1` [Example 1-226] gave a pIC50 of 5.66. `CN(CCc1ccc(Cl)c(-c2nc(O)nc(-c3ccc(OCC(C)(C)C)cc3)n2)c1)C(=O)C(C)(C)C(F)(F)F` [Example 1-227] was tested, and the pIC50 was 7.30. In the case of `CN(Cc1ccc(Cl)c(-c2nc(O)nc(-c3ccccc3)n2)c1)C(=O)C1CCCC1` [Example 1-228], the pIC50 was 6.17. `CN(Cc1ccc(Cl)c(-c2nc(O)nc(-c3ccccc3)n2)c1)C(=O)C1CCCCC1` [Example 1-229] was tested, and the pIC50 was 6.27. Work on `CN(Cc1ccc(Cl)c(-c2nc(O)nc(-c3ccccc3)n2)c1)C(=O)c1ccccc1` [Example 1-230] yielded a pIC50 of 6.12. With `CCC(C)(C)C(=O)N(C)Cc1ccc(Cl)c(-c2nc(O)nc(-c3ccccc3)n2)c1` [Example 1-231] the pIC50 was 7.35. `CC(C)Cc1ccc(-c2nc(O)nc(-c3cc(CC(=O)N(C)C(C)(C)C)ccc3Cl)n2)cc1` [Example 1-232] gave a pIC50 of 6.28.

Same assay, conditions: at 30 μM test article
For `O=C(O)c1ccc(Cl)c(-c2nc(O)nc(-c3ccc(OCC4CC4)cc3)n2)c1` [Example 1-192], the inhibition at 30 µM was 41%.
